Bridge positions count the residues as written; N and C are the ends. Square brackets hold non-standard residues; d marks the D form. Primed or numbered codes have the meaning given here. Ends that are not written are not given here. Peptide text beside a SMILES is read from it. * marks the point of attachment. X1 = O=C(O)CN1CCN(CC(=O)O)CCN([C@H](CCC(=O)*)C(=O)O)CCN(CC(=O)O)CC1; GdDOTAGA″ = gadolinium DOTAGA chelate, amide-bonded; Bip = N[C@@H](Cc1ccc(-c2ccccc2)cc1)C(=O)O

Kd data for 4 molecules are collected here from US20180185520A1, “COLLAGEN IMAGING COMPOSTIONS” (Collagen Medical, LLC, priority 2015, published 2018).

For one experiment, the target named is T1, human type I collagen (Homo sapiens, UniProt P02452+P08123).
T1 construct: purchased Advanced Biomatrix 5007-A
T1 sequence (P02452 162-1218 limits assumed): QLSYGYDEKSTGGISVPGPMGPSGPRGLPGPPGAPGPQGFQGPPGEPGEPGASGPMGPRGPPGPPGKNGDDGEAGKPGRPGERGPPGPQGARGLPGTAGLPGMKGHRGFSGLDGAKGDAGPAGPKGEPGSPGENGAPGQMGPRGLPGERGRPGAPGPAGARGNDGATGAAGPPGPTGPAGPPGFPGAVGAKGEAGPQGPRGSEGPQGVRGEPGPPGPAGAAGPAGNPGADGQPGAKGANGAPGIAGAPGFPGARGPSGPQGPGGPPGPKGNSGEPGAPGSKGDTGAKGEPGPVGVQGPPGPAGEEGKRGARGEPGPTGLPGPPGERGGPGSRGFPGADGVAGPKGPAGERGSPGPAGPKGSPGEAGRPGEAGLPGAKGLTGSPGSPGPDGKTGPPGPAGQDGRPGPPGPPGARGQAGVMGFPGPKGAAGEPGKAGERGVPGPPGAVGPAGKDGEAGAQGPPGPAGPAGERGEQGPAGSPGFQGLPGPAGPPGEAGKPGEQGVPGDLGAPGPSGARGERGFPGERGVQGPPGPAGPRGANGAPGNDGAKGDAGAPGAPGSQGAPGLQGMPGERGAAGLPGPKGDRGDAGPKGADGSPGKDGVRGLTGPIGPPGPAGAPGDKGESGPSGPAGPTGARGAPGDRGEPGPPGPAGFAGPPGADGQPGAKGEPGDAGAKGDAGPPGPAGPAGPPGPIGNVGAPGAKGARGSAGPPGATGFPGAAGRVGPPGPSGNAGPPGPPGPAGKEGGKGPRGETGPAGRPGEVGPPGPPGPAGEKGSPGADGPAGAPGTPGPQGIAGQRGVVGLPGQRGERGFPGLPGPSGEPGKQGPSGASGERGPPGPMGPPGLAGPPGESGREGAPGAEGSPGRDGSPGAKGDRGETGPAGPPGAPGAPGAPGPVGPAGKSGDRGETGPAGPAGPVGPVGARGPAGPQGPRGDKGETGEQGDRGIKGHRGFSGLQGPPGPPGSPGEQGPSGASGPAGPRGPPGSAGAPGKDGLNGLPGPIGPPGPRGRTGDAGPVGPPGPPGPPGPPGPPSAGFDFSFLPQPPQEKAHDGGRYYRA
T1 sequence (P08123 80-1119 limits assumed): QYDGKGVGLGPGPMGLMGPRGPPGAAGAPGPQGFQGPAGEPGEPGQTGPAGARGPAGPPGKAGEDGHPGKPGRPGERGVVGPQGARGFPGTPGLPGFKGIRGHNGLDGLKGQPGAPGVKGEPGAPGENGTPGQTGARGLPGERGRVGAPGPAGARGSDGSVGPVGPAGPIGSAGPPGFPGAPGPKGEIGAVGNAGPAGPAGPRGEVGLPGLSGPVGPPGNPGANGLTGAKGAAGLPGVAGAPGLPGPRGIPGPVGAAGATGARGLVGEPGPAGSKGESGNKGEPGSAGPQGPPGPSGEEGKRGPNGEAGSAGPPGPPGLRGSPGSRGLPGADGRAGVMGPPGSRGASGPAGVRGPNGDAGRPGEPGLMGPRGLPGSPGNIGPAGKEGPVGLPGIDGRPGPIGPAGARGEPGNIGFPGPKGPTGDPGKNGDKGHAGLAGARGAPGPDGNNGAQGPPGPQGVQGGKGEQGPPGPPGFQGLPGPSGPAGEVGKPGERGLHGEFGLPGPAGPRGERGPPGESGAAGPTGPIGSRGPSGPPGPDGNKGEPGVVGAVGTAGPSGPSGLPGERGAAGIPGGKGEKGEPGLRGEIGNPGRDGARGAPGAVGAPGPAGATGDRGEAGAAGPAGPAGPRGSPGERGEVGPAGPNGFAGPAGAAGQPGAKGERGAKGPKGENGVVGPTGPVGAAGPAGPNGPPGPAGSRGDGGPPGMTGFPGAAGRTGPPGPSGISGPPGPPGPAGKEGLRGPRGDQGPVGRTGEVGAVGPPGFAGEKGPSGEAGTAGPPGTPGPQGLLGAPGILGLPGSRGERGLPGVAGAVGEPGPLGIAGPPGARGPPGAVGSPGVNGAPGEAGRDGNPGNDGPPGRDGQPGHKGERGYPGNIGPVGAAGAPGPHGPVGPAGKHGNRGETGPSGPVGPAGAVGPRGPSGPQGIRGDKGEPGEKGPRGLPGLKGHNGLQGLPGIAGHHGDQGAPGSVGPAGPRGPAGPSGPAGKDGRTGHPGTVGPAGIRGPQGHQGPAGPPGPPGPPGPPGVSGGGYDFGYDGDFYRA
The experiment is described as follows: Collagen binding assay, dried human collagen in microtiter plate. As to conditions: 37° C., pH 7.4. The procedure:
10 ml of a solution of 3 mg/ml of human type I collagen (VitroCol solution, Advanced Biomatrix, cat#5007-A) is dialyzed against 10 mM Phosphate (NaH2PO4), pH 4.2 at 4° C. with three changes of the dialysis buffer. The protein concentration is determined by liquid chromatography determination of hydroxyproline (P. Hutson, J. Chromatogr. B, 791 (2003) 427-430).
Ice-cold 1×PBS pH 10.8 is added to the collagen solution for a final collagen concentration of 10 μM, pH 7.4. Collagen solutions are gelled and dried down in the wells of a 96 well microtiter plate (Corning Polystyrene Flat Bottom, cat#3641). […] The final well content of gelled collagen is measured by determination of hydroxyproline and is around 180 μg/ml.
(§1) a serial dilution of 0.2 μM-30 μM of the peptide chelate is prepared in PBS, pH 7.4 ([…], of solution for each concentration). […] The concentration of free, unbound compound in the sample supernatants and the concentration of compound in the reserved (total) sample are determined by ICP-MS (Agilent 7500, gadolinium concentration). The concentration of compound bound to collagen is determined as [bound]=[total]−[unbound].
(§2) The binding of compounds to human, rat and dog collagen (5 μM) was measured over the concentration range 0.2-5 μM of Comp ID Nos.: 1-4. […]

Experiment [1] concerns the target T2, Canine collagen (Native canine Collagen Type I and III protein) (Canis lupus familiaris, UniProt O46392+Q9XSJ7).
T2 construct: purchased YO protein AB 739
The experiment is described as follows: Collagen binding assay, dried canine collagen in microtiter plate. As to conditions: 37° C., pH 7.4; read-out: Collagen Binding Dog (Kd). The procedure: Canine collagen (Native canine Collagen Type I and III protein, YO protein AB, cat#739) is dissolved in 0.5 M acetic acid at 3.3 mg/ml by vortexing and shaking overnight at 4° C. The solution is then dialyzed against 10 mM Phosphate (NaH2PO4), pH 4.2 at 4° C. with three changes of the dialysis buffer.
Ice-cold 1×PBS pH 10.8 is added to the collagen solution for a final collagen concentration of 10 μM, pH 7.4. Collagen solutions are gelled and dried down in the wells of a 96 well microtiter plate (Corning Polystyrene Flat Bottom, cat#3641). 70 μl of 10 μM collagen is aliquoted into each well in every other lane in the plate (48 wells) and the plate is incubated at 37° C. for 18 hours to form a gel and evaporate to dryness. […] The final well content of gelled collagen is measured by determination of hydroxyproline and is around 180 μg/ml.
as §1, §2

Experiment [2] concerns the target rat collagen (acid soluble, type I, rat tail, Millipore Inc, cat#08-115) (rat) (UniProt P02454). The experiment is described as follows: dried collagen film in microtiter plate; unbound compound by ICP-MS (Gd); fit to 1 binding site.

T2 sequence (Q9XSJ7 158-1214 limits assumed): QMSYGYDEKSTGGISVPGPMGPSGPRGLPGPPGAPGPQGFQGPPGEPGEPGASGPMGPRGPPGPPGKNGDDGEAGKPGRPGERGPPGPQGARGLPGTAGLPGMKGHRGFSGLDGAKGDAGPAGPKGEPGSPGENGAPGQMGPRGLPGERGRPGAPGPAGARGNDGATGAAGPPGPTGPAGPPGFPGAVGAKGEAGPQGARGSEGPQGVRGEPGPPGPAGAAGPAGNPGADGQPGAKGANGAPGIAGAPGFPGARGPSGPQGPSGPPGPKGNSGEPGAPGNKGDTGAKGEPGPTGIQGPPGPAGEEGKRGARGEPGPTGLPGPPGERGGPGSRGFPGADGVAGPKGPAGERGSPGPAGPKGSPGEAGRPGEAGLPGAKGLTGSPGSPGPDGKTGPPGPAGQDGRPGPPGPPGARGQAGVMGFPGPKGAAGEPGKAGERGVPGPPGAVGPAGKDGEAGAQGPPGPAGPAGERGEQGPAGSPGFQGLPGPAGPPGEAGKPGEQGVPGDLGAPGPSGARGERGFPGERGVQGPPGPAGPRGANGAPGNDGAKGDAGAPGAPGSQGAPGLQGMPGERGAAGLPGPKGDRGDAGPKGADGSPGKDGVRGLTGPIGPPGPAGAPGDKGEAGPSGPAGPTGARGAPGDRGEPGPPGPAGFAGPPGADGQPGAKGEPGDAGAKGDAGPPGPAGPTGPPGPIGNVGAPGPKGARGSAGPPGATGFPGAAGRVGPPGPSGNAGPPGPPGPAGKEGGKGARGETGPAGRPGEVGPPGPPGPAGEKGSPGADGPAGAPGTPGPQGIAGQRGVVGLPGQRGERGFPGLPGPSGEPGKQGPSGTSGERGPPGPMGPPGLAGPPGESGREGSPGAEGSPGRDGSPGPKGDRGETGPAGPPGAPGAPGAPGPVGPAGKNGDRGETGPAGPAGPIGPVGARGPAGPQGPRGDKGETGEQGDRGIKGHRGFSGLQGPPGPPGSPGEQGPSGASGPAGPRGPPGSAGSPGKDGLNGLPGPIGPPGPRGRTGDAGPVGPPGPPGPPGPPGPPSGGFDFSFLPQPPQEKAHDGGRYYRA
T2 sequence (O46392 80-1119 limits assumed): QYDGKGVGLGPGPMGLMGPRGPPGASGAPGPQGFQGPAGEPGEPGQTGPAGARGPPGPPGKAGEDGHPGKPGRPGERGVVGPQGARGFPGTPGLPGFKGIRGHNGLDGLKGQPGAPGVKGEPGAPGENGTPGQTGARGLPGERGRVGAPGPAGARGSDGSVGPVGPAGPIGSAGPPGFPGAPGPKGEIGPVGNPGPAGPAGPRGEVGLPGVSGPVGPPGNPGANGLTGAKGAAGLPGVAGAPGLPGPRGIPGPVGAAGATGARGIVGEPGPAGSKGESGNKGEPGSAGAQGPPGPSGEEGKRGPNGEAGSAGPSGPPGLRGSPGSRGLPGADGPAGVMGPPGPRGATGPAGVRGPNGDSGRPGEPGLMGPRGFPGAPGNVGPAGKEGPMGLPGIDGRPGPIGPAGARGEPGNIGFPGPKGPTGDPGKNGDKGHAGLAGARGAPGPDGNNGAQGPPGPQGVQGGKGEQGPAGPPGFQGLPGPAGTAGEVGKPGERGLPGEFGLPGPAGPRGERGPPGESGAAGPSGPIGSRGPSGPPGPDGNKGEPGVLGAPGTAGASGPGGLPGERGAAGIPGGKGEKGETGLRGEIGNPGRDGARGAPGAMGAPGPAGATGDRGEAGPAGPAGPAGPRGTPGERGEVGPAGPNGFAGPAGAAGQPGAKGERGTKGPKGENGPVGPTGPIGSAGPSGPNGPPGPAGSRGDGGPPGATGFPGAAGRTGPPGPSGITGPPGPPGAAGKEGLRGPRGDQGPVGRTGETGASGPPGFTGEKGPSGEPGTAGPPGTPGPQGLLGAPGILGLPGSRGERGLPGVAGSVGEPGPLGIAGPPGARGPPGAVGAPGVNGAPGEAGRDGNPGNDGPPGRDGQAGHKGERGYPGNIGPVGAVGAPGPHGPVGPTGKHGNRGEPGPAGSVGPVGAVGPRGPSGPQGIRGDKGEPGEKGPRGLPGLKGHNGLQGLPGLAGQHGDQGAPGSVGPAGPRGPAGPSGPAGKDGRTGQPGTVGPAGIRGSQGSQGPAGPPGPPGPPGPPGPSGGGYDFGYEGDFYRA

Regarding `CC(C)C[C@H](NC(=O)[C@@H]1CSSC[C@H](NC(=O)[C@H](Cc2c[nH]cn2)NC(=O)[C@H](Cc2c[nH]c3ccccc23)NC(=O)[C@H](Cc2ccc(O)cc2)NC(=O)[C@H](CCCCNC(=O)CC[C@H](C(=O)O)N2CCN(CC(=O)O)CCN(CC(=O)O)CCN(CC(=O)O)CC2)NC(=O)CC[C@H](C(=O)O)N2CCN(CC(=O)O)CCN(CC(=O)O)CCN(CC(=O)O)CC2)C(=O)N[C@@H]([C@@H](C)O)C(=O)N[C@@H]([C@@H](C)O)C(=O)N[C@@H](CCCCNC(=O)CC[C@H](C(=O)O)N2CCN(CC(=O)O)CCN(CC(=O)O)CCN(CC(=O)O)CC2)C(=O)N[C@@H](Cc2ccccc2)C(=O)N2CCC[C@H]2C(=O)N[C@@H](Cc2c[nH]cn2)C(=O)N[C@@H](Cc2c[nH]cn2)C(=O)N[C@@H](Cc2ccc(O)cc2)C(=O)N1)C(=O)N[C@@H](Cc1ccc(O)cc1)C(=O)N[C@@H](Cc1ccc(-c2ccccc2)cc1)C(N)=O` [Compound ID No. 3] (X1-K(X1)YWHCTTK(X1)FPHHYCLY[Bip]-NH2; disulfide 5-14), on human type I collagen, the dissociation constant (Kd) (in general, the constant that tells how readily two partners part at equilibrium) was determined as 29.8 µM.

For `CC(C)[C@H](NC(=O)[C@@H]1CSSC[C@H](NC(=O)[C@H](Cc2c[nH]cn2)NC(=O)[C@H](Cc2c[nH]c3ccccc23)NC(=O)[C@H](CCCCNC(=O)CC[C@H](C(=O)O)N2CCN(CC(=O)O)CCN(CC(=O)O)CCN(CC(=O)O)CC2)NC(=O)CC[C@H](C(=O)O)N2CCN(CC(=O)O)CCN(CC(=O)O)CCN(CC(=O)O)CC2)C(=O)N[C@@H](Cc2ccc(O)cc2)C(=O)N[C@@H]([C@@H](C)O)C(=O)N[C@@H](CCCCNC(=O)CC[C@H](C(=O)O)N2CCN(CC(=O)O)CCN(CC(=O)O)CCN(CC(=O)O)CC2)C(=O)N[C@@H](Cc2ccccc2)C(=O)N2CCC[C@H]2C(=O)N[C@@H](Cc2c[nH]cn2)C(=O)N[C@@H](Cc2c[nH]cn2)C(=O)N[C@@H](Cc2ccc(O)cc2)C(=O)N1)C(=O)N[C@@H](Cc1ccc(O)cc1)C(=O)N[C@@H](Cc1ccc(-c2ccccc2)cc1)C(N)=O` [Compound ID No. 4] (X1-K(X1)WHCYTK(X1)FPHHYCVY[Bip]-NH2; disulfide 4-13), in experiment [1], the Kd amounted to 2 µM.

B1: Compound ID No. 2 (peptide)
peptide: {GdDOTAGA″}-K(GdDOTAGA″)WHCTTK(GdDOTAGA″)FPHHYCLY[Bip]-NH2
modifications: disulfide 4-13
Molecule B1 had a Kd in experiment [2] of 20.6 µM.

B2: Compound ID No. 4 (peptide)
peptide: KWHCYTKFPHHYCVY[Bip]-NH2
modifications: disulfide 4-13; also: GdDOTAGA on N-terminal nitrogen or Lys epsilon amines, sites not fixed
In the case of B2, in experiment [2], the Kd amounted to 4.6 µM.
